Patent EP3364964B1, “COMPOSITION BASED ON DIHYDROMYRICETIN AND A ZINC SALT FOR THE TREATMENT OF ACNE AND OILY SKIN” (Thorel, Jean-Noël, priority 2015, dated 2017)
Several values for one entry are separate records, joined by “and”; a condition that tells them apart may be missing. Equal values may be shown once.

Key:
[1] = tested on: collagénase issue de Clostridium histolyticum; assay: Anti-collagenase activity, MMP-1 kit, in tubo fluorescence test; assay type: biochemical
Source text: L'activité anti-collagénase est mesurée grâce au kit MMP-1 (Molecular Probes; Réf E12055). Le principe est basé sur la capacité d'une enzyme de la famille des MMP (« Marix Metallo-Proteinase ») zinc-dépendantes, en l'occurrence la collagénase issue de Clostridium histolyticum, à hydrolyser son substrat (collagène-I) pour donner des composés fluorescents mesurables.
En présence d'un inhibiteur, l'action de l'enzyme est altérée empêchant l'hydrolyse de son substrat. La 1,10 phénanthroline est utilisée comme le témoin positif d'inhibition de l'enzyme. La fluorescence émise à 535 nm est mesurée après excitation à 485 nm.
La 1,10-phenanthroline monohydrate (10mM), un inhibiteur connu des MMP fourni dans le kit, est utilisée comme contrôle positif.
Les contrôles négatifs suivants ont été réalisés : • Témoin H2O : ce témoin a été utilisé pour solubiliser la 1-10-phenantroline monohydrate; il représente arbitrairement 100% d'activité de l'enzyme par rapport aux résultats obtenus avec ce contrôle. • Témoin solvant (DMSO 1%) : quantité de solvant inclus dans l'ensemble des actifs et associations à tester; il représente arbitrairement 100% d'activité de l'enzyme par rapport aux résultats obtenus avec les actifs et associations testés.
Le gluconate de zinc a été testé à la concentration de 0,1% (en poids).
La DHM a été testée aux concentrations suivantes : 0,002% et 0,05% (en poids). L'association gluconate de zinc 0,1% + DHM 0,002% a également été testée.
Les analyses quantitatives sont exprimées sous forme de moyenne ± l'écart type. La significativité statistique est déterminée par un test de Student. Les différences sont considérées comme statistiquement significatives entre l'actif testé et son témoin solvant à partir de p<0.05. (NS : […]).

[2] = Protection of squalene against oxidation induced by hydrogen peroxide (GC/MS of non-oxidised squalene); details: H2O2 6%, 1 h; for Squalène Moyenne: mean; for Squalène (µg/ml): single trials (Essai)
Source text: L'objectif de ce test est d'évaluer l'inhibition par la DHM de l'oxydation du squalène, induite par le peroxyde d'hydrogène (H2O2). Le Trolox (6-Hydroxy-2,5,7,8-tétraméthylchroman-2-carboxylic acid), un équivalent hydrosoluble de la vitamine E, est un antioxydant connu et est utilisé dans ces tests en tant que témoin positif.
Le squalène (Sigma Aldrich) est dans un premier temps solubilisé dans une chambre réactionnelle.
L'oxydation du squalène est induite par l'ajout d'une solution de peroxyde d'hydrogène (H2O2 à une concentration finale de 6%).
Les actifs devant être évalués sont ajoutés au mélange réactionnel. Ainsi, le Trolox à 0,8% en poids est utilisé comme témoin positif de la protection contre l'oxydation du squalène.
Un contrôle positif, correspondant au squalène incubé en présence d'H2O2, et un contrôle négatif, correspondant au squalène non exposé à l'H2O2, sont également réalisés.
Le mélange obtenu est mis sous agitation pendant une heure, à température ambiante et à l'abri de la lumière.
Le squalène est ensuite extrait du milieu réactionnel à l'aide d'une extraction liquide/liquide. Après évaporation de la solution organique, le résidu est solubilisé dans une solution de chloroforme et le squalène est analysé par une méthode de chromatographie GC/MS.
La mesure de la concentration en squalène permet d'estimer la quantité de squalène ayant été oxydée au cours de la réaction. En effet et selon la technique de mesure utilisée, seule la forme non oxydée est détectée.

[3] = tested on: lignée de sébocytes humains SEB0662; assay: MTT cell viability / cytotoxicity test in sebocytes; assay type: cell-based
Method: (§1) Dans cette étude, on utilise la lignée de sébocytes humains SEB0662.
(§2) Les cellules sont cultivées dans le milieu de culture classique des sébocytes, à 37°C et en présence de 5% de CO2. Les cellules sont utilisées au 7^ème passage.
La sélection des doses d'actifs est réalisée grâce à un test de viabilité cellulaire au MTT. On retient les doses qui permettent de maintenir une viabilité supérieure à 90%.
L'erreur standard de la moyenne (esm) représente l'écart de ln moyenne de l'échantillon par rapport à la moyenne de la population. L'esm est calculée en divisant l'écart-type (Sd) par la racine carrée de la taille de l'échantillon (sqrt(n)). Erreur standard de la moyenne(esm) = écart-type(Sd)/sqrt(n) [formula] Pourcentage de viabilité: viabilité(%) = (DOcomposé/DOtémoin) × 100 [formula] Pourcentage de stimulation: Stimulation(%) = [(Valeur/moyennedutémoin)×100]−100 [formula] Pourcentage de d'inhibition: Inhibition(%) = 100−[(Valeur/moyennedutémoin)×100] [formula]

sébocytes SEB0662 = assay: IGF-1 induced lipid synthesis in sebocytes (Bodipy lipid droplet labelling, 14 days); assay type: cell-based, humains; details: 0,001%, IGF-1 20 ng/ml
Method: La présente étude vise à étudier l'effet de la DHM et/ou du gluconate de zinc (Zn) sur l'inhibition de la synthèse des lipides, induite par l'ajout d'IGF-1, dans les sébocytes. Cet effet est suivi par marquage, à l'aide d'une sonde lipidique fluorescente couplée au Bodipy®, des sébocytes SEB0662 cultivés en monocouche pendant 14 jours en milieu de différenciation (supplémenté en IGF-1 à 20 ng/ml).
as §1, §2
Pour l'évaluation des actifs, un milieu dit de différenciation (milieu de culture classique supplémenté en dihydrotestostérone, albumine bovine sérique, acide linoléïque, glucose, sérum de veau fœtal, hydrocortisone et agonistes des PPAR (« Peroxysome Proliferator Activated Receptor »)), complémenté en IGF-1 à 20 ng/ml, est utilisé. L'ajout d'IGF-1 stimule la production de lipides par les sébocytes. […]
Les marquages sont quantifiés par mesure de l'intensité de fluorescence de la sonde rapportée au nombre de noyaux identifiés par le Hoechst (intégration des données numériques par le logiciel Developer Toolbox 1 .5, GE Healthcare). […]

[4] = tested on: Propionibacterium acnes ATCC 69.19; assay: Growth inhibition of P. acnes, micromethod of Lens-Lisbonne et al. (MIC); assay type: cell-based; details: first concentration with growth <= 20 %, 36° C, 3 to 5 days, anaerobic
Source text: L'objet de cette étude est d'évaluer l'activité inhibitrice de composés vis-à-vis de la souche Propionibacterium acnes selon les principes de la méthode décrite par Lens-Lisbonne et al. (1987).
La méthode de Lens-Lisbonne et al. permet de tester en milieu liquide le pouvoir antibactérien de substances faiblement solubles et/ou très volatiles, et permet d'éviter les méthodes par diffusion ou en phase vapeur. Brièvement, elle consiste à mettre en présence des volumes égaux de produit à tester et de milieu inoculé, à différentes concentrations. […] L'activité inhibitrice est évaluée à partir des mesures d'absorbance du mélange, comparées aux conditions contrôle. […]
Après incubation de la microplaque pendant une durée définie, la densité optique à 620 nm est mesurée. Les résultats sont exprimés en pourcentage de croissance calculé par rapport à un témoin de croissance et un témoin d'absorbance selon l'équation suivante: Pourcentage de croissance = (DOmesuréeduproduitàlaconcentrationC−DOmesuréedutémoind'absorbanceproduitàlaconcentrationC)/DO mesurée témoin de croissance [formula] […]
Le test est effectué sur microplaque 96 puits. En synthèse, 30 puits sont utilisés pour les témoins d'absorbance; 30 puits sont utilisés pour les essais. […]

O.c1cnc2c(c1)ccc1cccnc12 [1-10-phénanthroline monohydrate, 1,10-phenanthroline monohydrate, reference compound]
inhibition de l'activité collagénase ([1]; 10mM, versus H2O control): 79,6%

O=C1c2c(O)cc(O)cc2O[C@H](c2cc(O)c(O)c(O)c2)[C@H]1O [DHM, (2R,3R)-3,5,7-trihydroxy-2-(3,4,5-trihydroxyphenyl)-2,3-dihydrochromen-4-one]
Indice de protection (%) ([2]; 0,01 % en poids): 35,19%
Squalène Moyenne ([2]; 0,01 % en poids): 26,10 µg/ml
Squalène (µg/ml) ([2]; 0,01 % en poids): 27,01 µg/ml and 24,86 µg/ml and 26,42 µg/ml
Indice de protection (%) ([2]; 0,05 % en poids): 45,28%
Squalène Moyenne ([2]; 0,05 % en poids): 33,58 µg/ml
Squalène (µg/ml) ([2]; 0,05 % en poids): 34,44 µg/ml and 32,88 µg/ml and 33,41 µg/ml
Indice de protection (%) ([2]; 0,005 % en poids): 28,64%
Squalène Moyenne ([2]; 0,005 % en poids): 21,24 µg/ml
Squalène (µg/ml) ([2]; 0,005 % en poids): 19,84 µg/ml and 21,37 µg/ml and 22,51 µg/ml
effet cytotoxique ([3]; tested up to 0,003%): ne montre pas d'effet cytotoxique
inhibition de l'activité collagénase ([1]; 0,05% en poids, versus DMSO 1% control): 30,1%
inhibition de l'activité collagénase ([1]; 0,002% en poids, versus DMSO 1% control): 3,5%

Cc1c(C)c2c(c(C)c1O)CCC(C)(C(=O)O)O2 (stereo not drawn) [Trolox, 6-Hydroxy-2,5,7,8-tétraméthylchroman-2-carboxylic acid, reference compound]
Indice de protection (%) ([2]; 0,8 % en poids): 42,94%
Squalène Moyenne ([2]; 0,8 % en poids): 31,85 µg/ml
Squalène (µg/ml) ([2]; 0,8 % en poids): 31,41 µg/ml and 31,88 µg/ml and 32,25 µg/ml and 34,60 µg/ml and 32,49 µg/ml

gluconate de zinc [reference compound]
cytotoxicité ([3]; 0,001%): ne présente pas de cytotoxicité
inhibition de la synthèse des lipides induite par l'IGF-1 (sébocytes SEB0662): ~15%
inhibition de l'activité collagénase ([1]; 0,1% en poids, versus DMSO 1% control): 80,2%
CMI microméthode (%-m/v) ([4]; Test 1): 0,05 %-m/v
CMI microméthode (%-m/v) ([4]; Test 2): 0,05 %-m/v
